According to patent US4952591A, “Anti-ulcer urea derivatives” (Kyorin Pharmaceutical Co., Ltd., priority 1987, dated 1990):

Experiments:
[1] = system: Gastric secretion (acid output); experiment: Gastric antisecretion (Acute fistula method, histamine-stimulated, pylorus-ligated rats); type: in vivo, Male Donryu rats; settings: i.d., histamine 10 mg/kg i.m.
Method: Male Donryu rats, weighing about 200 g, were fasted for 24 hours before the experiment. […] The gastric cannula was implanted in the forestomach (Acute fistula method). Gastric secretion from cannula was collected into test tubes every one hour and the acid output was titrated. Histamine (10 mg/kg) was intramuscularly given after the first collection of gastric juice. Drugs were intraduodenally given after the second collection of the gastric juice.

[2] = system: 0.6 N HCl-induced gastric lesions; experiment: Gastric cytoprotection (0.6 N HCl-induced gastric lesions); type: in vivo, Male Donryu rats; settings: p.o., an hour before 0.6 N HCl, lesion length
Method: Male Donryu rats, weighing about 200 g, were deprived of food and water for 24 hours. One ml of 0.6N HCl solution was given orally and the animals were killed an hour later. […] The length (mm) of each gastric lesion was measured under a dissecting microscope, summed, and used as an index for evaluation. Drugs were orally given an hour before 0.6 N HCl solution treatment.

Histamine H2-receptor = target: T1, Histamine H2-receptor (Cavia porcellus, UniProt P47747); experiment: Histamine H2-receptor antagonism (isolated right atrium, positive chronotropic effect of histamine); design: species or system Male Hartley guinea-pigs; settings: guinea-pig right atrium, 32±1° C., drugs added 5 minutes before histamine; read-out: pA2 (converted)
T1 construct: The right atrium was dissected and suspended at 0.5 g tension in a 10 ml organ bath; from tissue; host or cells: isolated right atrium of male Hartley guinea-pigs
T1 sequence (P47747 whole entry): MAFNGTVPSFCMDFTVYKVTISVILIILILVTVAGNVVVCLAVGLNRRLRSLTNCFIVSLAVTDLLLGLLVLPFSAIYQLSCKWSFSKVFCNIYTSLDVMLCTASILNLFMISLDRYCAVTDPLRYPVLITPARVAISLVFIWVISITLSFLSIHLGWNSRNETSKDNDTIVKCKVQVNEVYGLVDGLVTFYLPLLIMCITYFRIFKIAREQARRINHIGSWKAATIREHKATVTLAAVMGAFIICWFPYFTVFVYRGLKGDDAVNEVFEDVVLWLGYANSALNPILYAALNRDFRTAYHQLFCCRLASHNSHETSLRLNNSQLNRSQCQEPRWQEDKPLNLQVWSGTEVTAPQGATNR
Method: Male Hartley guinea-pigs, weighing between 300 and 400 g, were used in the experiment. The right atrium was dissected and suspended at 0.5 g tension in a 10 ml organ bath containing Krebs-Henseleit's solution, kept at 32±1° C. and bubbled with the gas mixture (95 % O2 and 5 % CO2). Contractions were recorded with a force-displacement transducer through a strain gange. […] Drugs were added into the organ bath 5 minutes before histamine treatment.

Compound	Inhibition (%) ([1]; Dose 25 mg/kg)	Kb (Histamine H2-receptor) [nM]	Inhibition (%) ([2]; Dose 25 mg/kg)	Inhibition (%) ([2]; Dose 50 mg/kg)	Inhibition (%) ([2]; Dose 6 mg/kg)	Inhibition (%) ([1]; Dose 5 mg/kg)	further results
CN/C(=N/CCSCc1nc[nH]c1C)NC#N [Cimetidine, reference compound]	80.0	–	–	–	–	–	Inhibition (%) ([1]; Dose 12.5 mg/kg): 51.9%; Inhibition (%) ([1]; Dose 50 mg/kg): 100.0%; Inhibition (%) ([2]; Dose 100 mg/kg): 22.0%
COc1ccc(NC(=O)NCCCOc2cccc(CN3CCCCC3)c2)cc1 [Example 1, N-(4-Methoxyphenyl)-N'-[3-(3-piperidinomethylphenoxy)propyl]urea]	98.5	263	30.1	45.1	–	–	Inhibition (%) ([1]; Dose 12.5 mg/kg): 70.7%; Inhibition (%) ([2]; Dose 100 mg/kg): 67.4%
CCCNC(=O)NCCCOc1cccc(CN2CCCCC2)c1 [Example 8]	–	41.7	–	–	55.4	–	Inhibition (%) ([1]; Dose 1 mg/kg): 49.5%; Inhibition (%) ([1]; Dose 3 mg/kg): 77.5%; Inhibition (%) ([1]; Dose 6 mg/kg): 81.3%; Inhibition (%) ([2]; Dose 1 mg/kg): 26.4%; Inhibition (%) ([2]; Dose 16 mg/kg): 67.4%
CCNC(=O)NCCCOc1cccc(CN2CCCCC2)c1 [Example 16, N-Ethyl-N'-[3-(3-piperidinomethylphenoxy)propyl]urea]	–	66.1	78.0	89.4	52.6	49.5	Inhibition (%) ([1]; Dose 10 mg/kg): 77.2%
CNC(=O)NC/C=C\COc1cccc(CN2CCCCC2)c1 [Example 29]	–	35.5	73.8	–	–	80.8	Inhibition (%) ([1]; Dose 3 mg/kg): 39.1%; Inhibition (%) ([2]; Dose 5 mg/kg): 49.3%
CCOc1ccc(NC(=O)NCCCOc2cccc(CN3CCCCC3)c2)cc1 [Example 51, N-(4-Ethoxyphenyl)-N'-[3-(3-piperidinomethylphenoxy)propyl]urea]	97.1	251	–	63.4	–	–	Inhibition (%) ([1]; Dose 1 mg/kg): 29.0%; Inhibition (%) ([1]; Dose 6 mg/kg): 52.7%
CC(C)NC(=O)NCCCOc1cccc(CN2CCCCC2)c1 [Example 54]	–	27.5	73.0	70.1	36.1	68.2	Inhibition (%) ([1]; Dose 2 mg/kg): 16.1%; Inhibition (%) ([1]; Dose 10 mg/kg): 78.8%
